US8546419B2, “Dual phase drug release system” (priority 2003, dated 2013)
Like-named read-outs stand apart in the source and are kept apart here.

Legend:
in vivo = conditions: mouse
Description: The toxicity of CPT was evaluated in normal outbred mice, as well as in xenograft bearing nude athymic animals in the course of antineoplastic activity studies.

HT29 cell culture = assay: Cytotoxicity of CPT derivatives, MTT assay; format: cell-based, human; conditions: HT-29 cell culture, 72 hours post treatment, read-out: ID50, growth inhibition
Description: Human colorectal adenocarcinoma HT-29 cell culture was from ATCC (ATCC HTB-38).
Cytotoxicity of CPT derivatives was investigated in HT29 cell culture. Cells were grown in McCoy's 5a medium with 1.5 mM L-glutamine supplemented with 10% FBS.

HT-29 xenograft = format: in vivo; conditions: HT29 model; for time of tumor growth from 0.10-0.15 cm^3 to 1.5 cm^3: 22.5 mg/kg, untreated control 24 days
Description: Camptothecin and CPT-SI (the first phase release product) were used as controls.
Cells were injected subcutaneously into the left flank, 10^6 cells per animal in 50 μl. […] Animals of the first three groups received the respective experimental substance via the tail vein in five doses every three days (5xq3D). […] CPT and CPT-SI were administered as dispersions in Tween 80/water (9/1 v/v). Animal weight, tumor size, animal appearance, behavior, and survival rate were monitored for four weeks after administration. Weight loss over 20% and tumor growth over 1500 mm^3 were counted as lethalities (animals were euthanized).
The latter were administered as Cremofor® emulsions.

[1] = Description: The resultant suspension was diluted to 150 ml and extracted with methylene chloride (3×150 ml). Methylene chloride layers were combined, washed with 0.01 N HCl, and dried over magnesium sulfate. Solvent was removed in vacuum.
[2] = Hydrolytic stability and CPT release in aqueous media / phosphate buffered saline (RP HPLC); format: physicochemical
Description: The second stage hydrolysis of CPT-SI was investigated analogously.
Using procedures analogous to the described above, CPT release from these conjugates was investigated in phosphate buffered saline as described above. The conjugates were also tested for cytotoxicity in HT29 cell culture.

[3] = system: HT-29 human colorectal carcinoma cells; assay: Cell growth inhibition in vitro by Taxol preparations; format: cell-based; conditions: HT-29 cells, conjugate with Taxol content of 13%, read-out: ED50, cell growth inhibitory efficacy
Description: PHF-SAG-Taxol conjugate synthesis was carried out on a 2-gram scale, at ambient temperature, pH 5.5-6.0. […] The PHF-SAG-Taxol was purified of low molecular weight impurities by gel filtration on G25 Sefadex column equilibrated with DI water, and recovered by lyophilyzation. […] Stability of PHF-Taxol conjugates in aqueous media was monitored by HPLC.

CCc1c2c(nc3ccc(OC(=O)N4CCC(N5CCCCC5)CC4)cc13)-c1cc3c(c(=O)n1C2)COC(=O)[C@]3(O)CC [Irinotecan]
MTD (in vivo): 9 to 10 mg/kg

Camptothecin-20-(N-succinimidoglycinate) [CPT-SI]
IC50 (HT29 cell culture): 34 nM | effect on tumor dynamics (HT-29 xenograft): no significant effect on tumor dynamics | time of tumor growth from 0.10-0.15 cm^3 to 1.5 cm^3 (HT-29 xenograft): 27 days | solubility in water [1]: < 1.0 µg/mL | half-time of subsequent (second stage) hydrolysis ([2]; depending on the conditions): over 20 hrs

CC(=O)O[C@H]1C(=O)[C@@]2(C)[C@H]([C@H](OC(=O)c3ccccc3)[C@]3(O)C[C@H](OC(=O)[C@H](O)[C@@H](NC(=O)c4ccccc4)c4ccccc4)C(C)=C1C3(C)C)[C@]1(OC(C)=O)CO[C@@H]1C[C@@H]2O [Taxol]
EC50 [3]: 15 nM

CC[C@@]1(O)C(=O)OCc2c1cc1n(c2=O)Cc2cc3ccccc3nc2-1 [CPT, camptothecin, reference compound]
IC50 (HT29 cell culture; Homo sapiens): 17 nM | time of tumor growth from 0.10-0.15 cm^3 to 1.5 cm^3 (HT-29 xenograft): 40 days | MTD (in vivo): 9 to 10 mg/kg

1,1-Dimethylsuccinic Acid-Linked PHF-CPT [PHF-DMSA-CPT]
solubility (in words) [1]: soluble in water, saline and polar organic solvents | CPT half-release time ([2]; PBS at pH 7.47/37° C., first phase release): 0.6 h
